Results taken from EP3791884A1, “COMBINATION OF HEPARIN AND MAGNESIUM SALT FOR THE TREATMENT OF VIRAL INFECTIONS” (Bunz, Oskar, priority 2019, dated 2021).
Read-outs that look alike come from different tables or passages of the source.

Legend:
[1] = in vivo; cited from earlier work
[2] = system: several types of adenovirus; conditions: cited from earlier work
[3] = system: human adenovirus type 5 (HAdV5); conditions: solely MgCl2, with 25 µmol MgCl2, HAdV5 1000 vpc, CHO-K1 cells
HAdV5 [4] = conditions: HeLa cells, HAdV5 1000 vpc, heparin 5 I.U. per well and/or MgCl2 5 µmol per well 4 hrs prior to infection, 26 hrs post infection
HAdV5 [5] = system: HAdV5
H9N2 = conditions: MDCKII cells, H9N2 MOI 0,1, Heparin 5 I.U. per well and/or MgCl2 5 µmol per well
[6] = Zinc test series: cytotoxic effect (not described in the Examples); assay type: cell-based
Description: (§1) The inventors have also used zinc for some test series (not described in the Examples section). […] Furthermore, the antiviral effect of zinc was not apparent for all adenoviruses tested. An antiviral effect of zinc was detectable only for adenovirus type 5.

adenovirus type 5 = assay: Zinc test series: antiviral effect, adenovirus type 5; assay type: cell-based
Description: as §1

Adenovirus type 10 = assay: Zinc test series: antiviral effect, adenovirus type 10; assay type: cell-based
Description: as §1

Nc1ccn(C[C@@H](CO)OCP(=O)(O)O)c(=O)n1 [Cidofovir]
toxicity [1]: nephrotoxic

Nc1nc(O)c2ncn(COC(CO)CO)c2n1 [Ganciclovir]
efficiency against adenovirus [2]: not against adenovirus | half-maximal effective concentration (EC50) ([2]; in vitro, relative to plasma): three times higher than in plasma

[Cl-].[Cl-].[Mg+2] [MgCl2, magnesium chloride]
luciferase values [3]: 40% | median fluorescent intensity (MFI) (HAdV5 [4]): 41% | luciferase expression levels (HAdV5 [5]; only MgCl2 and virus, compared to untreated cells solely infected with virus): 7% | luciferase expression levels (HAdV5 [5]; only applying virus and MgCl2): about 32% | luciferase expression levels (HAdV10; only MgCl2 and virus): 12% | luciferase expression levels (HAdV10; only applying virus and MgCl2): 10% | infected cells (immunofluorescence) (H9N2): slight decrease

NC(=O)c1ncn([C@@H]2O[C@H](CO)[C@@H](O)[C@H]2O)n1 [Ribavirin]
antiviral activity against HAdV species C ([2]; in vitro): antiviral activity | antiviral activity against species A, B, D ([2]; in vitro): limited activation

[Zn] [zinc]
cytotoxic effect [6]: very strong cytotoxic effect | antiviral effect (adenovirus type 5): detectable | infection efficiencies in cells treated with zinc (Adenovirus type 10): increased infection efficiencies
